Like-named read-outs stand apart in the source and are kept apart here.
Key:
SARS-CoV-2 3CL protease = SARS-CoV-2 3CL protease (Severe acute respiratory syndrome coronavirus 2, UniProt P0DTD1); test: Inhibitory activity test against SARS-CoV-2 3CL proteases; type: biochemical
SARS-CoV-2 = test: Inhibitory activity of cytopathic effect (CPE) in HEK293T/ACE2-TMPRSS2 cells; type: cell-based; settings: Severe acute respiratory syndrome coronavirus 2, HEK-293T, 72 h
[1] = read-out: IC50 (50% SARS-CoV-2 3CL protease inhibitory concentration)
[2] = 50% SARS-CoV-2 infected cell death inhibitory concentration, HEK293T/ACE2-TMPRSS2 cells, CellTiter-Glo 2.0 after 3 days culture, read-out: EC50
[3] = HEK293T/ACE2-TMPRSS2 cells, cultured 3 days, CellTiter-Glo 2.0 luminescence, read-out: EC50 (50% SARS-CoV-2 infected cell death inhibitory concentration)

## COc1nc(N2CC[C@@H](F)C2)cc2c1c(=O)n(Cc1ncn(C)n1)c(=O)n2-c1cc(Cl)c(F)c(Cl)c1 [Compound I-0803]
SARS-CoV-2 3CL protease; [1]
  IC50: 32 nM
SARS-CoV-2; [2]
  EC50: 17.6 nM

## COc1cc(-n2c(=O)n(Cc3ncn(C)n3)c(=O)c3c(OC)nc(N4CC[C@@H](F)C4)cc32)cc(Cl)c1F [Compound I-0804]
SARS-CoV-2 3CL protease; [1]
  IC50: < 100 nM
SARS-CoV-2; [3]
  EC50: < 100 nM

## COc1nc(N2CC[C@@H](F)C2)cc2c1c(=O)n(Cc1ncn(C)n1)c(=O)n2-c1cc(C)c(F)c(Cl)c1 [Compound I-0805]
SARS-CoV-2 3CL protease; [1]
  IC50: < 100 nM
SARS-CoV-2; [3]
  EC50: < 100 nM

## COc1nc(N2[C@@H]3CC[C@H]2CNC3)cc2c1c(=O)n(-c1cnc3ccc(Cl)cn13)c(=O)n2-c1ccc(F)c(Cl)c1 [Compound I-0806]
SARS-CoV-2 3CL protease; IC50 (50% SARS-CoV-2 3CL protease inhibitory concentration)
  IC50: 3.9 nM
SARS-CoV-2
  EC50: 25.1 nM

## COc1nc(N2CCC(F)(F)C2)cc2c1c(=O)n(-c1cnc3ccccn13)c(=O)n2-c1ccc(F)c(Cl)c1 [Compound I-0808]
SARS-CoV-2 3CL protease; [1]
  IC50: < 100 nM
SARS-CoV-2; [3]
  EC50: < 100 nM

## Cn1cnc(Cn2c(=O)c3c4nccnc4c(-c4cc(C#N)ccc4Cl)cc3n(Cc3cc(F)c(F)c(Cl)c3)c2=O)n1 [Compound I-0809]
SARS-CoV-2 3CL protease; [1]
  IC50: < 100 nM
SARS-CoV-2; [3]
  EC50: < 100 nM

## Cn1cnc(Cn2c(=O)c3c4nccnc4c(-c4cc(C(C)(C)O)ccc4Cl)cc3n(Cc3cc(F)c(F)c(Cl)c3)c2=O)n1 [Compound I-0810]
SARS-CoV-2 3CL protease; [1]
  IC50: 1.3 nM
SARS-CoV-2; [2]
  EC50: 19.4 nM

## Cn1cnc(Cn2c(=O)c3c4c(c(-c5cc(C#N)ccc5Cl)cc3n(Cc3cc(F)c(F)c(Cl)c3)c2=O)CCO4)n1 [Compound I-0811]
SARS-CoV-2 3CL protease; [1]
  IC50: < 100 nM
SARS-CoV-2; [3]
  EC50: < 100 nM

## Cn1cnc(Cn2c(=O)c3c4c(c(-c5cc(C(C)(C)O)ccc5Cl)cc3n(Cc3cc(F)c(F)c(Cl)c3)c2=O)CCO4)n1 [Compound I-0812]
SARS-CoV-2 3CL protease; [1]
  IC50: 1.1 nM
SARS-CoV-2; [2]
  EC50: 15.8 nM

## Cn1cnc(Cn2c(=O)c3c4nccnc4c(N4CCC(F)(F)C4)cc3n(Cc3cc(F)c(F)c(Cl)c3)c2=O)n1 [Compound I-0813]
SARS-CoV-2 3CL protease; [1]
  IC50: < 100 nM
SARS-CoV-2; [3]
  EC50: < 100 nM

## Cn1cnc(Cn2c(=O)c3c4c(c(N5CCC(F)(F)C5)cc3n(Cc3cc(F)c(F)c(Cl)c3)c2=O)CCO4)n1 [Compound I-0814]
SARS-CoV-2 3CL protease; [1]
  IC50: < 100 nM
SARS-CoV-2; [3]
  EC50: < 100 nM

## Cn1cnc(Cn2c(=O)c3c4nccnc4c(-c4cc(C(C)(C)O)c(F)cc4Cl)cc3n(Cc3cc(F)c(F)c(Cl)c3)c2=O)n1 [Compound I-0815]
SARS-CoV-2 3CL protease; [1]
  IC50: < 100 nM
SARS-CoV-2; [3]
  EC50: < 100 nM

## COc1nc2c(=O)n(Cc3ncn(C)n3)c(=O)n(Cc3cc(F)c(F)c(Cl)c3)c2cc1-c1cc(C(C)(C)O)c(F)cc1Cl [Compound I-0816]
SARS-CoV-2 3CL protease; [1]
  IC50: < 100 nM
SARS-CoV-2; [3]
  EC50: < 100 nM

## COc1nc2c(=O)n(Cc3ncn(C)n3)c(=O)n(Cc3cc(F)c(F)c(Cl)c3)c2cc1-c1nc(C#N)ccc1Cl [Compound I-0819]
SARS-CoV-2 3CL protease; [1]
  IC50: < 100 nM
SARS-CoV-2; [3]
  EC50: < 100 nM

## COc1ccc(Cl)c(-c2cc3c(nc2OC)c(=O)n(Cc2ncn(C)n2)c(=O)n3Cc2cc(F)c(F)c(Cl)c2)n1 [Compound I-0820]
SARS-CoV-2 3CL protease; [1]
  IC50: < 100 nM
SARS-CoV-2; [3]
  EC50: < 100 nM

## COc1ccc(Cl)c(-c2cc3c(nc2OC)c(=O)n(Cc2ncn(C)n2)c(=O)n3Cc2cc(Cl)c(F)cc2C)n1 [Compound I-0821]
SARS-CoV-2 3CL protease; [1]
  IC50: 10 nM
SARS-CoV-2; [2]
  EC50: 37.6 nM

## COc1nc2c(=O)n(Cc3ncn(C)n3)c(=O)n(Cc3cc(Cl)c(F)cc3C)c2cc1-c1cc(C(C)(C)O)ccc1Cl [Compound I-0822]
SARS-CoV-2 3CL protease; [1]
  IC50: < 100 nM
SARS-CoV-2; [3]
  EC50: < 100 nM

## Cn1cnc(Cn2c(=O)c3c4nccnc4c(-c4cc5c(cc4Cl)NC(=O)C5)cc3n(Cc3cc(F)c(F)c(Cl)c3)c2=O)n1 [Compound I-0823]
SARS-CoV-2 3CL protease; [1]
  IC50: 0.75 nM
SARS-CoV-2; [2]
  EC50: 197 nM

## COc1cc(-c2nc(C)ccc2Cl)cc2c1c(=O)n(Cc1ncn(C)n1)c(=O)n2Cc1cc(F)c(F)c(F)c1 [Compound I-0826]
SARS-CoV-2 3CL protease; [1]
  IC50: < 100 nM
SARS-CoV-2; [3]
  EC50: < 100 nM

## COc1cc(-c2ncc(F)cc2Cl)cc2c1c(=O)n(Cc1ncn(C)n1)c(=O)n2Cc1cc(F)c(F)c(F)c1 [Compound I-0827]
SARS-CoV-2 3CL protease; [1]
  IC50: < 100 nM
SARS-CoV-2; [3]
  EC50: 100 to 1000 nM

## COc1cc(-c2ncc(N)cc2Cl)cc2c1c(=O)n(Cc1ncn(C)n1)c(=O)n2Cc1cc(F)c(F)c(F)c1 [Compound I-0834]
SARS-CoV-2 3CL protease; [1]
  IC50: < 100 nM
SARS-CoV-2; [3]
  EC50: < 100 nM

## COc1cc(-c2ncccc2Cl)cc2c1c(=O)n(Cc1ncn(C)n1)c(=O)n2Cc1cc(F)c(F)c(F)c1 [Compound I-0838]
SARS-CoV-2 3CL protease; [1]
  IC50: < 100 nM
SARS-CoV-2; [3]
  EC50: 100 to 1000 nM

## COc1cc(-c2cc([C@@H](C)O)ccc2Cl)cc2c1c(=O)n(Cc1ncn(C)n1)c(=O)n2Cc1cc(F)c(F)c(F)c1 [Compound I-0839]
SARS-CoV-2 3CL protease; [1]
  IC50: < 100 nM
SARS-CoV-2; [3]
  EC50: 100 to 1000 nM

## COc1cc(-c2cc([C@H](C)O)ccc2Cl)cc2c1c(=O)n(Cc1ncn(C)n1)c(=O)n2Cc1cc(F)c(F)c(F)c1 [Compound I-0840]
SARS-CoV-2 3CL protease; [1]
  IC50: < 100 nM
SARS-CoV-2; [3]
  EC50: < 100 nM

## COc1nc(-c2cc(C#N)ccc2Cl)cc2c1c(=O)n(-c1cnc3ccccn13)c(=O)n2Cc1ccc(F)c(C#N)c1 [Compound I-0842]
SARS-CoV-2 3CL protease; [1]
  IC50: 34 nM
SARS-CoV-2; [2]
  EC50: 88.2 nM

## COc1nc2c(=O)n(-c3cnc4cc(F)ccn34)c(=O)n(Cc3cc(Cl)c(F)cc3C)c2cc1-c1cc(C(C)(C)O)ccc1Cl [Compound I-0843]
SARS-CoV-2 3CL protease; [1]
  IC50: 7.4 nM
SARS-CoV-2; [2]
  EC50: 72.3 nM

## N#Cc1ccc(Cl)c(-c2cc3c(c(=O)n(-c4cnc5ccccn45)c(=O)n3Cc3cc(F)c(F)c(F)c3)c3nccnc23)c1 [Compound I-0844]
SARS-CoV-2 3CL protease; [1]
  IC50: < 100 nM
SARS-CoV-2; [3]
  EC50: < 100 nM

## COc1cc(-c2cccc(C#N)c2Cl)cc2c1c(=O)n(Cc1ncn(C)n1)c(=O)n2Cc1cc(F)c(F)c(F)c1 [Compound I-0847]
SARS-CoV-2 3CL protease; [1]
  IC50: < 100 nM
SARS-CoV-2; [3]
  EC50: 100 to 1000 nM

## COc1cc(-c2cc3nc(C(F)F)[nH]c3cc2Cl)cc2c1c(=O)n(Cc1ncn(C)n1)c(=O)n2Cc1cc(F)c(F)c(F)c1 [Compound I-0848]
SARS-CoV-2 3CL protease; [1]
  IC50: < 100 nM
SARS-CoV-2; [3]
  EC50: 100 to 1000 nM

## CCOc1nc2cc(-c3cc(OC)c4c(=O)n(Cc5ncn(C)n5)c(=O)n(Cc5cc(F)c(F)c(F)c5)c4c3)c(Cl)cc2[nH]1 [Compound I-0852]
SARS-CoV-2 3CL protease; [1]
  IC50: < 100 nM
SARS-CoV-2; [3]
  EC50: 100 to 1000 nM

## COc1nc2cc(-c3cc(OC)c4c(=O)n(Cc5ncn(C)n5)c(=O)n(Cc5cc(F)c(F)c(Cl)c5)c4c3)c(Cl)cc2[nH]1 [Compound I-0858]
SARS-CoV-2 3CL protease; [1]
  IC50: 2.4 nM
SARS-CoV-2; [2]
  EC50: 44.1 nM

## N#Cc1ccc(Cl)c(-c2cc3c(c4c2C(O)CO4)c(=O)n(-c2cncc(Cl)c2)c(=O)n3Cc2cc(F)c(F)c(F)c2)c1 (stereo not shown) [Compound I-0859]
SARS-CoV-2 3CL protease; [1]
  IC50: 1.9 nM
SARS-CoV-2; [2]
  EC50: 18.7 nM

## N#Cc1ccc(Cl)c(-c2cc3c(c(=O)n(-c4cncc(Cl)c4)c(=O)n3Cc3cc(F)c(F)c(F)c3)c3occc23)c1 [Compound I-0863]
SARS-CoV-2 3CL protease; [1]
  IC50: 5.3 nM
SARS-CoV-2; [2]
  EC50: 52.5 nM

## Cn1cnc(Cn2c(=O)c3c4c(c(-c5cc(C#N)ccc5Cl)cc3n(Cc3cc(F)c(F)c(F)c3)c2=O)[C@@H](O)CO4)n1 [Compound I-0864]
SARS-CoV-2 3CL protease; [1]
  IC50: 1.4 nM
SARS-CoV-2; [2]
  EC50: 46.2 nM

## Cn1cnc(Cn2c(=O)c3c4c(c(-c5cc(C#N)ccc5Cl)cc3n(Cc3cc(F)c(F)c(F)c3)c2=O)[C@H](O)CO4)n1 [Compound I-0865]
SARS-CoV-2 3CL protease; [1]
  IC50: < 100 nM
SARS-CoV-2; [3]
  EC50: 100 to 1000 nM

## Cn1cnc(Cn2c(=O)c3c4c(c(-c5cc(C#N)ccc5Cl)cc3n(Cc3cc(F)c(F)c(F)c3)c2=O)C(F)(F)CO4)n1 [Compound I-0866]
SARS-CoV-2 3CL protease; [1]
  IC50: 6.4 nM
SARS-CoV-2; [2]
  EC50: 15.4 nM

## COc1cc(-c2c(Cl)ccc3c2CCN(C)C3=O)cc2c1c(=O)n(Cc1ncn(C)n1)c(=O)n2Cc1cc(F)c(F)c(F)c1 [Compound I-0867]
SARS-CoV-2 3CL protease; [1]
  IC50: 1.2 nM
SARS-CoV-2; [2]
  EC50: 47.9 nM

## COc1cc(-c2c(Cl)ccc3c2CCC(=O)N3C)cc2c1c(=O)n(Cc1ncn(C)n1)c(=O)n2Cc1cc(F)c(F)c(F)c1 [Compound I-0868]
SARS-CoV-2 3CL protease; [1]
  IC50: 1.6 nM
SARS-CoV-2; [2]
  EC50: 21.4 nM

From patent publication US20240400560A1, “BICYCLIC HETEROCYCLIC DERIVATIVE HAVING VIRAL GROWTH INHIBITORY ACTIVITY AND PHARMACEUTICAL COMPOSITION CONTAINING SAME” (Shionogi & Co., Ltd., priority 2021, published 2024)
